The values that follow come from ChEMBL document CHEMBL3396975, “Structural development of stapled short helical peptides as vitamin D receptor (VDR)-coactivator interaction inhibitors” (Bioorg Med Chem, 2015).

Starred links: 1 amine or outer side, 2 acyl side, 3 side chain; linkers in the order of their positions; H or OH if unused. Positions of bridges follow the written chain, without caps; N, C: chain ends. Non-standard residues stand in square brackets, D forms with d. Residues, ends and D or L forms follow the SMILES beside them. *: point of attachment. X2 = O=C(C(CO)(CO)N[*:1])[*:2]; X1 = OC(C[*:1])C(O)C[*:2]; hSer = N[C@@H](CCO)C(=O)O; X3 = C(CC[*:2])C[*:1]; Aib = CC(C)(N)C(=O)O; Allyl = C=CC*

This test addresses T1, Vitamin D3 receptor (Homo sapiens, UniProt P11473).
T1 sequence (P11473 whole entry): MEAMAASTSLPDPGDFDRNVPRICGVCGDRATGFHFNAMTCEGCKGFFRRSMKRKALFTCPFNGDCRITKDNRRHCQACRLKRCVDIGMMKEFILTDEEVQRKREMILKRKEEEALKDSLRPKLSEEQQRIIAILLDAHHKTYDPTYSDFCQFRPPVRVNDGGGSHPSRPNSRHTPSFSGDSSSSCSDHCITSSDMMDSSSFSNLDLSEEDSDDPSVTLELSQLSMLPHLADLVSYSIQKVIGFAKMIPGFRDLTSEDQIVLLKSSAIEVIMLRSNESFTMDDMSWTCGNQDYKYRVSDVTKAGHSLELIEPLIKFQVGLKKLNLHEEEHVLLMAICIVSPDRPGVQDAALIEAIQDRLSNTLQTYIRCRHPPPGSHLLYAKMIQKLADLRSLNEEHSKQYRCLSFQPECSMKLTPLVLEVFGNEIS
Kind of test: Inhibition of human VDR-cofactor interaction by EnBio receptor cofactor assay system.
For the compound `CC(=O)N[C@@H](CC(C)C)C(=O)N[C@@H](CC(C)C)C(=O)N[C@H]1CCOCC(O)C(O)COCC[C@@H](C(N)=O)NC(=O)[C@H](CC(C)C)NC(=O)[C@H](CC(C)C)NC(=O)C(C)(C)NC1=O` (stereo partly drawn) (Ac-LL[hSer][Aib]LL[hSer]-NH2; linker 3-7 via X1), the IC50 turned out to be 67 µM. To `CC(=O)N[C@@H](CC(C)C)C(=O)N[C@@H](CC(C)C)C(=O)N[C@H]1CCOCCCCOCC[C@@H](C(N)=O)NC(=O)[C@H](CC(C)C)NC(=O)[C@H](CC(C)C)NC(=O)C(CO)(CO)NC1=O` (Ac-LL[hSer][X2]LL[hSer]-NH2; linker 3-7 via X3) belongs 20 µM; to `C=CCOCC[C@H](NC(=O)[C@H](CC(C)C)NC(=O)[C@H](CC(C)C)NC(=O)C(C)(C)NC(=O)[C@H](CCOCC=C)NC(=O)[C@H](CC(C)C)NC(=O)[C@@H](N)CC(C)C)C(=O)O` (H-LL[hSer](Allyl)[Aib]LL[hSer](Allyl)-OH), 500 µM.
